# From publication PMC8221581, “Functional Characterization of Olfactory Proteins Involved in Chemoreception of Galeruca daurica” (Frontiers in Physiology, 2021)
# Where two headings read alike, the source gives them in different places.
# How the values were obtained:
# GdauOBP1 = GdauOBP1 (Galeruca daurica, UniProt A0A1U9W4Y5); assay: Fluorescence competitive binding assay (1-NPN reporter), recombinant GdauOBP1; conditions: for Ki: Ki = IC50/(1 + [1-NPN]/K1-NPN)
# Protocol: (§1) Fluorescence-binding assays were performed using a 970CRT spectrofluorophotometer (Hitachi, Japan). Instrument parameters were set as follows: Excitation slit of 10 nm, emission slit of 10 nm, sensitivity of 2 s, excitation wavelength of 337 nm, and scanning emission wavelength range of 350–700 nm. In order to measure the affinity of the fluorescent ligand 1-NPN (N-phenyl-1-naphthylamine) with the six recombinant proteins, the recombinant proteins were diluted to 2 μM in 50 mM Tris–HCl (pH 7.4) and added into a 1-cm light path quartz cuvette. Fluorescence values were recorded after the 1-NPN solution was added successively. The dissociation constant K1–NPN was calculated using GraphPad Prism 7.0 software.
# (§2) Thirteen main volatiles of the host plant (A. mongolicum) were selected as competing ligands for the fluorescence competitive binding assays (Table 1). All ligands were purchased from Sigma-Aldrich (St. Louis, MO, United States). These ligands were dissolved in methanol (HPLC grade) to make stock solutions of 1 mM, which were added into a 2-μM protein solution with 1-NPN saturated. […] Three duplications were used in the binding experiment. The curves were fitted using Scatchard plots. The dissociation constants (Ki) of the competitive ligands were calculated based on the equation: Ki = IC50/(1 + [1−NPN]/K1−NPN), where IC50 is the concentration of a competitor that results in a 50% reduction of the initial fluorescence intensity, and [1-NPN] and K1–NPN are the free concentration of 1-NPN and the dissociation constant of the recombinant protein/1-NPN complex, respectively ([Campanacci et al., 2001]).
# GdauOBP6 = GdauOBP6 (Galeruca daurica, UniProt A0A1U9W4Z8); assay: Fluorescence competitive binding assay (1-NPN reporter), recombinant GdauOBP6; conditions: for Ki: Ki = IC50/(1 + [1-NPN]/K1-NPN)
# Protocol: as §1, §2
# GdauOBP10 = GdauOBP10 (Galeruca daurica, UniProt A0A1U9W4Z5); assay: Fluorescence competitive binding assay (1-NPN reporter), recombinant GdauOBP10; conditions: for Ki: Ki = IC50/(1 + [1-NPN]/K1-NPN)
# Protocol: as §1, §2
# GdauOBP15 = GdauOBP15 (Galeruca daurica, UniProt A0A1U9W4Z9); assay: Fluorescence competitive binding assay (1-NPN reporter), recombinant GdauOBP15; conditions: for Ki: Ki = IC50/(1 + [1-NPN]/K1-NPN)
# Protocol: as §1, §2
# GdauCSP4 = GdauCSP4 (Galeruca daurica, UniProt A0A1W6GWH1); assay: Fluorescence competitive binding assay (1-NPN reporter), recombinant GdauCSP4; conditions: for Ki: Ki = IC50/(1 + [1-NPN]/K1-NPN)
# Protocol: as §1, §2
# GdauCSP5 = GdauCSP5 (Galeruca daurica, UniProt A0A1W6GWH8); assay: Fluorescence competitive binding assay (1-NPN reporter), recombinant GdauCSP5; conditions: for Ki: Ki = IC50/(1 + [1-NPN]/K1-NPN)
# Protocol: as §1, §2
# G. daurica antennae [1] = assay: Electroantennogram (EAG) of dsRNA-CSP5-injected adults to host plant volatiles; parameters: species or system Galeruca daurica; conditions: dsRNA-CSP5-injected females vs dsRNA-GFP control; 10 μL of 1 mol/L odorant
# Protocol: (§3) Two microliters of dsRNA (1,000 μg/μL) was injected into the intersegmental membrane between the fourth and fifth abdominal segments of 3-day-old adult females and males using a microinjector (Shimadzu, Japan). All the treated insects, including dsRNA-OBP15-injected, dsRNA-CSP5-injected, and dsRNA-GFP-injected, were reared under natural temperature conditions in the lab. Samples were taken 48 h later for interference efficiency measurement and electroantennogram analysis.
# Electroantennograms were conducted to record the antennal responses of dsRNA-OBP15-injected, dsRNA-CSP5-injected, and dsRNA-GFP-injected to 12 plant volatiles. These odorants were dissolved in dichloromethane (HPLC grade) to make stock solutions of 1 mol/L, and dichloromethane alone served as solvent control. The antennae were cut off at the base, and the ends were removed then attached to the electrode with electrode gel. Filter paper strips (1 cm × 0.5 cm) were loaded with 10 μL of each chemical solution and then inserted into a Pasteur pipette. The tube was connected to an air stimulus controller (CS-55; SynTech). The signals were detected by a high-impedance amplifier (IDAC-2; SynTech) and analyzed using SynTech software (GC-EAD 2014 v1.2.5). The pulse duration time was 0.2 s with a stimulation interval of 30 s, and each compound was tested three times for each antenna. It was taken as the absolute value of the difference value between the maximum amplitude achieved by the odor stimulus and the baseline level. Each antenna was stimulated three times. All EAG results are presented as the mean EAG values from six female or male antennae.
# The binding assay curve was fitted by GraphPad Prism 7.0, using the least squares (ordinary) fit of the second-order polynomial. Data from qPCR and EAG assays were analyzed using SPSS Statistics 17.0. T-test (P < 0.05) was used to analyze the differences among the groups.
# G. daurica antennae [2] = assay: Electroantennogram (EAG) of dsRNA-OBP15-injected adults to host plant volatiles; parameters: species or system Galeruca daurica; conditions: dsRNA-OBP15-injected females vs dsRNA-GFP control; 10 μL of 1 mol/L odorant
# Protocol: as §3
# Electroantennograms were conducted to record the antennal responses of dsRNA-OBP15-injected, dsRNA-CSP5-injected, and dsRNA-GFP-injected to 12 plant volatiles. These odorants were dissolved in dichloromethane (HPLC grade) to make stock solutions of 1 mol/L, and dichloromethane alone served as solvent control. The antennae were cut off at the base, and the ends were removed then attached to the electrode with electrode gel. Filter paper strips (1 cm × 0.5 cm) were loaded with 10 μL of each chemical solution and then inserted into a Pasteur pipette. […] The signals were detected by a high-impedance amplifier (IDAC-2; SynTech) and analyzed using SynTech software (GC-EAD 2014 v1.2.5). […]
# The binding assay curve was fitted by GraphPad Prism 7.0, using the least squares (ordinary) fit of the second-order polynomial. Data from qPCR and EAG assays were analyzed using SPSS Statistics 17.0. […]
# [3] = GdauOBP1, 2 μM protein, 1-NPN saturated, 50 mM Tris–HCl pH 7.4, read-out: IC50
# [4] = GdauOBP6, 2 μM protein, 1-NPN saturated, 50 mM Tris–HCl pH 7.4, read-out: IC50
# [5] = GdauOBP10, 2 μM protein, 1-NPN saturated, 50 mM Tris–HCl pH 7.4, read-out: IC50
# [6] = GdauOBP15, 2 μM protein, 1-NPN saturated, 50 mM Tris–HCl pH 7.4, read-out: IC50
# [7] = GdauCSP4, 2 μM protein, 1-NPN saturated, 50 mM Tris–HCl pH 7.4, read-out: IC50
# [8] = GdauCSP5, 2 μM protein, 1-NPN saturated, 50 mM Tris–HCl pH 7.4, read-out: IC50
# GdauCSP4, sequence (A0A1W6GWH1 entry or part of it): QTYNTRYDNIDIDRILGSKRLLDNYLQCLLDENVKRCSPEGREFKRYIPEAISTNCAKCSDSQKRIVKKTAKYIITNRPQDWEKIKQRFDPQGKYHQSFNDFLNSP
# GdauCSP5, sequence (A0A1W6GWH8 entry or part of it): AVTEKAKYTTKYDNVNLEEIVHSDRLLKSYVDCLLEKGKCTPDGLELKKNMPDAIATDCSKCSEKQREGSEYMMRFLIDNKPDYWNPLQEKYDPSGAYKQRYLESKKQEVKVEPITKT
# GdauOBP6, sequence (A0A1U9W4Z8 entry or part of it): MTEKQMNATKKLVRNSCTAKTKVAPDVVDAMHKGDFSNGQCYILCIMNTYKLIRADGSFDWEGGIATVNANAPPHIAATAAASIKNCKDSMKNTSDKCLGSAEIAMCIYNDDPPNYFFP
# GdauOBP1, sequence (A0A1U9W4Y5 entry or part of it): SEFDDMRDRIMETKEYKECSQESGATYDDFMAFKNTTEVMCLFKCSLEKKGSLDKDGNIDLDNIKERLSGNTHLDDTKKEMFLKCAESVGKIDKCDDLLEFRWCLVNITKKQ
# GdauOBP15, sequence (A0A1U9W4Z9 entry or part of it): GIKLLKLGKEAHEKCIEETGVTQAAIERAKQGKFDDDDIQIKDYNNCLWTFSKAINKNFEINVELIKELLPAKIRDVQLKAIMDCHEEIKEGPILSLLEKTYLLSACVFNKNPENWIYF
# GdauOBP10, sequence (A0A1U9W4Z5 entry or part of it): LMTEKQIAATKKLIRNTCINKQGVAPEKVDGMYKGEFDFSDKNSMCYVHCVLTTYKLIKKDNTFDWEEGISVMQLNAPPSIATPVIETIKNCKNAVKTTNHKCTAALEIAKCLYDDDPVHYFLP
Compound,IC50 (GdauOBP1; [3]) [µM],Ki (GdauOBP1; GdauOBP1) [µM],IC50 (GdauOBP6; [4]) [µM],Ki (GdauOBP6; GdauOBP6) [µM],IC50 (GdauOBP10; [5]) [µM],Ki (GdauOBP10; GdauOBP10) [µM],IC50 (GdauOBP15; [6]) [µM],Ki (GdauOBP15; GdauOBP15) [µM],IC50 (GdauCSP4; [7]) [µM],Ki (GdauCSP4; GdauCSP4) [µM],IC50 (GdauCSP5; [8]) [µM],Ki (GdauCSP5; GdauCSP5) [µM],EAG response compared to the control (G. daurica antennae [1]),IC50 (GdauOBP1) [µM],IC50 (GdauOBP6) [µM],IC50 (GdauOBP10) [µM],IC50 (GdauOBP15) [µM],IC50 (GdauCSP4) [µM],IC50 (GdauCSP5) [µM],further results
"C1=CC=CCC=C1 [1,3,5-cycloheptatriene, 1,3,5-Cycloheptatriene]",63,53.8,80.5,69.2,59.9,46.2,51.7,45.6,23.4,21.2,45.5,33.5,significantly lower,,,,,,,
"C1CSCSC1 [1,3-dithiane]",,,,,,,,,,,,,significantly lower,70.6,36.7,59.5,57.2,18.5,50,
"c1ccc(Nc2cccc3ccccc23)cc1 [1-NPN, N-phenyl-1-naphthylamine, reference compound]",,,,,,,,,,,,,,,,,,,,Kd (GdauOBP1): 11.4 µM; Kd (GdauOBP6): 11.8 µM; Kd (GdauOBP10): 6.54 µM; Kd (GdauOBP15): 14.6 µM; Kd (GdauCSP4): 18.9 µM; Kd (GdauCSP5): 5.34 µM
"CCCC=CC=O [2-hexenal, 2-Hexenal]",,,,,,,,,,,,,significantly lower,95.9,33.9,85.5,41.7,17.5,34.4,EAG response compared to the control (G. daurica antennae [2]): reduced significantly
"CCC/C=C\CO [(Z)-2-hexen-1-ol, (Z)-2-Hexen-1-ol]",,,,,,,,,,,,,,86.4,33,95.6,76,50,,
C=CCSSCC=C [Diallyl disulfide],,,,,,,,,,,,,,97.1,72.1,,42.3,23.5,61.6,
C=CCSCC=C [Diallyl sulfide],,,55,47.3,77.8,60.1,48.1,42.4,43.8,39.7,72.2,53.1,,,,,,,,
CSSC [Dimethyl disulfide],64.9,55.4,29.9,25.7,61.9,47.8,26.2,23.1,23.1,21,36,26.5,,,,,,,,
CSSSC [Dimethyl trisulfide],63.2,54,44.5,38.2,67.4,52.1,56.7,50,16.6,15,53.7,39.5,significantly lower,,,,,,,
CCCCCC=O [Hexanal],,,,,,,,,,,,,significantly lower,70.8,32.3,52,68.8,15.4,61.4,
COC(=O)c1ccccc1 [Methyl benzoate],,,,,,,,,,,,,significantly lower,65.4,36.4,73.9,35.9,13.3,44.3,
C=CC(=C)CCC=C(C)C [Myrcene],82.6,70.6,68.7,59,,,,,,,84.2,61.9,significantly lower,,,,,,,
"Cc1ccc(C)cc1 [p-xylene, p-Xylene]",,,,,,,,,,,,,significantly lower,84.7,72.5,58,49.9,19.7,55.7,
